This note sets out measurements from patent publication US7279161B2, “Factor IX/factor IXa activating antibodies and antibody derivatives” (Baxter Aktiengesellschaft, priority 1999, dated 2007).

In one assay the target is T1, human FIXa (Homo sapiens, UniProt P00740).
T1 construct: with (+) and without (−) addition of 50 ng human FIXaβ; purchased ERL (Enzyme Research Laboratories)
Nature of the assay: Chromogenic FVIII-like (FXa generation) assay with human FIXa added. It counts as biochemical. As to the method:
The chromogenic activity of these antibody preparations was measured in the following FXa generation kinetic assay: 10 μg of monoclonal antibody (in 25 μl) were transferred to microtiter plate wells and warmed to 37° C. Chromogenic substrate (S-2222), synthetic thrombin inhibitor (I-2581), factor IXa and FX were reconstituted in sterile water and FIXa/FX (both bovine) were mixed with phospholipids according to the supplier's protocol. Per reaction, 50 μl of the phospholipid/FIXa/FX solution were combined with 25 μl CaCl2 (25 mM) and 50 μl of the substrate/inhibitor cocktail. To start the reaction, 125 μl of the premix were added to the monoclonal antibody solution in the microtiter plates and incubated at 37° C. Absorbance at 405 nm and 490 nm of the samples was read at various times (5 min to 2 h) against a reagent blank ([…] TBS instead of monoclonal antibodies) in a Labsystems iEMS Reader MF™ microtiter plate reader using GENESIS™ software. In parallel, the same reactions were performed except that 50 ng human FIXa were added per reaction.
To analyze the FVIII-like (FIXa activating) activity of the peptides, an assay system based on a commercial available FVIII assay was developed (see examples 2 and 4). The basic principle is, that without a cofactor, FIXa will have very limited activity towards its natural substrate FX. […] The amount of FXa generated is monitored by cleavage of a chromogenic substrate. The principle of the revised chromogenic assay is described for two representative peptides: A1/3 and A1/5 (Table 2). Briefly, 25 μl aliquots of peptide stock solution (in imidazole buffer (IZ) 50 mM imidazole, 100 mM NaCl, pH 7.2) were transferred to microtiter plate wells and warmed to 37° C. Chromogenic FXa substrate (S-2222), synthetic thrombin inhibitor (I-2581), bovine FIXa and bovine FX were reconstituted in sterile water and FIXa/FX mixed with phospholipids according to the supplier's protocol. […] Per reaction, 50 μl of the phospholipid/FIXa/FX solution were combined with 25 μl CaCl2 (25 mM) and 50 μl of the substrate/inhibitor cocktail. To start the reaction, 125 μl of the premix were added to the peptide solution in the microtiter plate and incubated at 37° C. Absorbance at 405 nm and 490 nm of the samples was read at various times (5 min to 2 h) against a reagent blank in a Labsystems iEMS Reader MF™ microtiter plate reader using GENESIS™ software.

The test system of another assay is FVIII deficient plasma. The assay can be described thus: aPTT based one stage clotting assay in FVIII deficient plasma. It counts as biochemical, human. As for the experimental part:
During normal hemostasis, FIX becomes initially activated either by the tissue factor (TF)/factor VIIa pathway or later on by activated factor XI (FXIa). Subsequent to its activation, FIXa associates on the platelet surface in a membrane bound complex with activated FVIII. […] Different amounts of antibody 193/AD3 or mouse IgG (as a control) were used in a standard aPTT based one stage clotting assay. Briefly, 100 μl of antibody-containing samples were incubated with 100 μl of FVIII deficient plasma (DP) and with 100 μl of DAPTTIN (PTT Reagent for determining activated Thromboplastin Time; IMMUNO AG) reagent, in a KC10A clotting analyzer. Where indicated, a total amount of 50 ng activated FIX was included in the reaction mixture. After a 4 minute incubation, the reaction was started by the addition of 100 μl CaCl2 (25 mM).
The peptides were also analyzed for their potential to reduce the clotting time in a FVIII deficient plasma. The aPTT based one stage clotting assay was essentially done as described (see example 6). Clotting times (time from starting the reaction to the “clot”-formation were compared either against FVIII, a buffer control (IZ) or a control peptide (scrambled version). The results of two typical clotting experiments done with two different aPTT reagents (DAPTTIN and Pathromtin SL) are shown in table 3A and table 3B.

Entries after “also recorded” stand apart in the source; their conditions may differ.

T1 sequence (P00740 47-191 limits assumed): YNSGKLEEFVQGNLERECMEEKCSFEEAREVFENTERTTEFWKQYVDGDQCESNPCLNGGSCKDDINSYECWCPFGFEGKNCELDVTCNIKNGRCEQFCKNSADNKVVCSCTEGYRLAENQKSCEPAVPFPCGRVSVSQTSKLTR
T1 sequence (P00740 227-461 limits assumed): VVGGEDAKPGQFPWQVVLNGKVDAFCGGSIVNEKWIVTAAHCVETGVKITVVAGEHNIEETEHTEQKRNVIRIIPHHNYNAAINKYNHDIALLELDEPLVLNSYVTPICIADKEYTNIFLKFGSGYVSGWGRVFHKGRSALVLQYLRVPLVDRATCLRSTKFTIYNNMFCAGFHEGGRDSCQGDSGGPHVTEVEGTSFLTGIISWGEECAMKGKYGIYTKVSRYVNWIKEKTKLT

Consider VRYRNRYRWGYRGRFGDE [A1/5], for which, at human FIXa (2.9 nM human FIXa), the “chromogenic FVIII-like activity (FXa generation)” value (“chromogenic FVIII-like activity” below) is “inactive; also recorded: does not give rise to any FXa generation”. For the same molecule, the chromogenic activity result on human FIXa (12 μM peptide, 2.3 nM human FIXa) is “no significant FXa generation”.

With FGVGYRGETRNFDW [B1/5], at human FIXa (data not shown), the “FIXa activating activity in chromogenic assay” value is recorded as “no activity”.

REGGGFTVNWYFDR [B1/4]: the chromogenic activity result on human FIXa (chromogenic FVIII assay, data not shown) is on record as “some chromogenic activity”.

As to EYGEGYGEVNEYDEFEWE [A1/4], the “chromogenic FVIII-like activity” value at human FIXa (2.9 nM human FIXa) is “did not give any significant chromogenic activity”.

As for EEEEGGGYYVNWYFDEEE [A1/2], at human FIXa (2.9 nM human FIXa), the “chromogenic FVIII-like activity” value is reported as “did not give any significant chromogenic activity”.

For the molecule RdRdRdGEYGVYWNGDFYRdRdRd [A1/3-Rd-srmb], the average clotting time with FVIII deficient plasma (Table 4, 1.25 μM, 2.2 nM FIXa) was found to be 103 s; in the assay with FVIII deficient plasma (Table 4, 1.25 μM, w/o FIXa) it was 107 s; in the assay on FVIII deficient plasma (Table 4, 2.5 μM, 2.2 nM FIXa) it was 105 s; in the assay with FVIII deficient plasma (Table 4, 2.5 μM, w/o FIXa) it was 112 s; in the assay on FVIII deficient plasma (Table 4, 5 μM, 2.2 nM FIXa) it was 108 s; in the assay with FVIII deficient plasma (Table 4, 5 μM, w/o FIXa), 113 s. Besides, the average clotting time in the assay with FVIII deficient plasma (Table 4, 7.5 μM, 2.2 nM FIXa) stood at 107 s; in the assay with FVIII deficient plasma (Table 4, 7.5 μM, w/o FIXa), 114 s; in the assay on FVIII deficient plasma (Table 4, 10 μM, 2.2 nM FIXa), 108 s; in the assay with FVIII deficient plasma (Table 4, 10 μM, w/o FIXa), 116 s; with FVIII deficient plasma (Table 4, 12.5 μM, 2.2 nM FIXa), 108 s; with FVIII deficient plasma (Table 4, 12.5 μM, w/o FIXa), 118 s. For the same molecule, the average clotting time in the assay on FVIII deficient plasma (Table 4, 15 μM, 2.2 nM FIXa) was found to be 113 s; with FVIII deficient plasma (Table 4, 15 μM, w/o FIXa), 122 s. The clotting time in the assay with FVIII deficient plasma (Table 4, 1.25 μM, 2.2 nM FIXa, duplicate 1) amounted to 101.1 s; in the assay on FVIII deficient plasma (Table 4, 1.25 μM, 2.2 nM FIXa, duplicate 2), 105.3 s; in the assay with FVIII deficient plasma (Table 4, 1.25 μM, w/o FIXa, duplicate 1) it was 107.2 s; in the assay with FVIII deficient plasma (Table 4, 1.25 μM, w/o FIXa, duplicate 2) it was 107.1 s; in the assay on FVIII deficient plasma (Table 4, 2.5 μM, 2.2 nM FIXa, duplicate 1), 105 s; with FVIII deficient plasma (Table 4, 2.5 μM, 2.2 nM FIXa, duplicate 2) it was 104.2 s. Further, the clotting time amounted to 111.9 s in the assay with FVIII deficient plasma (Table 4, 2.5 μM, w/o FIXa, duplicate 1); 111.9 s in the assay with FVIII deficient plasma (Table 4, 2.5 μM, w/o FIXa, duplicate 2); 108.5 s in the assay on FVIII deficient plasma (Table 4, 5 μM, 2.2 nM FIXa, duplicate 1); 108.2 s with FVIII deficient plasma (Table 4, 5 μM, 2.2 nM FIXa, duplicate 2); 113.1 s with FVIII deficient plasma (Table 4, 5 μM, w/o FIXa, duplicate 1); 112.4 s with FVIII deficient plasma (Table 4, 5 μM, w/o FIXa, duplicate 2). Besides, the clotting time was determined as 107.6 s in the assay on FVIII deficient plasma (Table 4, 7.5 μM, 2.2 nM FIXa, duplicate 1); 106.6 s in the assay on FVIII deficient plasma (Table 4, 7.5 μM, 2.2 nM FIXa, duplicate 2); 114.6 s in the assay on FVIII deficient plasma (Table 4, 7.5 μM, w/o FIXa, duplicate 1); 113.6 s with FVIII deficient plasma (Table 4, 7.5 μM, w/o FIXa, duplicate 2); 107.2 s in the assay with FVIII deficient plasma (Table 4, 10 μM, 2.2 nM FIXa, duplicate 1); 107.8 s in the assay on FVIII deficient plasma (Table 4, 10 μM, 2.2 nM FIXa, duplicate 2). Besides, the clotting time with FVIII deficient plasma (Table 4, 10 μM, w/o FIXa, duplicate 1) came to 115.8 s; with FVIII deficient plasma (Table 4, 10 μM, w/o FIXa, duplicate 2) it was 115.3 s; in the assay with FVIII deficient plasma (Table 4, 12.5 μM, 2.2 nM FIXa, duplicate 1), 108.1 s; in the assay with FVIII deficient plasma (Table 4, 12.5 μM, 2.2 nM FIXa, duplicate 2), 107.8 s; with FVIII deficient plasma (Table 4, 12.5 μM, w/o FIXa, duplicate 1), 117.2 s; in the assay with FVIII deficient plasma (Table 4, 12.5 μM, w/o FIXa, duplicate 2) it was 118 s. In addition, the clotting time in the assay on FVIII deficient plasma (Table 4, 15 μM, 2.2 nM FIXa, duplicate 1) came to 112.7 s; with FVIII deficient plasma (Table 4, 15 μM, 2.2 nM FIXa, duplicate 2) it was 112.4 s; in the assay with FVIII deficient plasma (Table 4, 15 μM, w/o FIXa, duplicate 1), 121.9 s; with FVIII deficient plasma (Table 4, 15 μM, w/o FIXa, duplicate 2) it was 121.3 s.

B1: 198/B1: anti-FIX/FIXa monoclonal IgG, ECACC No. 99090925; 198/AB2 is an identical subclone (protein)
scFv: EVQLQESGGGLVKPGGSLKLSCAASGFTFSSYTMSWVRQTPEKRLEWVATISSGGSSTYYPDSVKGRFTISRDNAKNTLYLQMSSLRSEDTAMYYCTREGGGFTVNWYFDVWGAGTLVTVSAGGGGSGGRASGGGGSENVLTQSPASLAVSLGQRATISCRASESVDSYGYNFMHWYQQIPGQPPKLLIYRASNLESGIPARFSGSGSRTDFTLTINPVEADDVATYYCQQSNEDPLTFGTGTRLEIKR
modifications: scFv derived from IgG; Description of Artificial Sequence:scFv from hybridoma cell line 198/AB2 (subclone of 198/B1)
notes: anti-FIX/FIXa monoclonal IgG, ECACC No. 99090925; 198/AB2 is an identical subclone
Take B1: the procoagulant activity result with FVIII deficient plasma (one-stage clotting assay in the presence of FIXa) was “show procoagulant activity”.

B2: MycHis-198AB2#102: 198/B1 (subclone AB2) scFv fragment with c-myc-tag and His6-tag (protein)
scFv: EVQLQESGGGLVKPGGSLKLSCAASGFTFSSYTMSWVRQTPEKRLEWVATISSGGSSTYYPDSVKGRFTISRDNAKNTLYLQMSSLRSEDTAMYYCTREGGGFTVNWYFDVWGAGTLVTVSAGGGGSGGRASGGGGSENVLTQSPASLAVSLGQRATISCRASESVDSYGYNFMHWYQQIPGQPPKLLIYRASNLESGIPARFSGSGSRTDFTLTINPVEADDVATYYCQQSNEDPLTFGTGTRLEIKR
modifications: left off: small tags and cut ends
notes: 198/B1 (subclone AB2) scFv fragment with c-myc-tag and His6-tag
For B2, the “chromogenic FVIII-like activity” value in the assay with human FIXa (2.3 nM human FIXa) is “gave rise to a substantial FXa generation”.

B3: 8860-M/H#4c: unrelated scFv of #8860 with c-myc-tag and His6-tag, negative control (protein)
scFv: EVQLQQSGPELVKPGASVKISCKASGYAFSSSWMNWVKQRPGQGLEWIGRIYPGNGDTNYNGKFKGKATLTADKSSSTAYMQLSSLTSVDSAVYFCADGNVYYYAMDYWGQGTSVTVSSGGGGSGGRASGGGGSQIVLTQSPASLAVSLGQRATISCRASKSVSTSGYSYMHWYQQKPGQPPKLLIYLASNLESGVPARFSGSGSGTDFTLNIHPVEEEDAATYYCQHSRELPRTFGGGTKLEIKRAAAEQKLISEEDLNGAAHHHHHH
As to B3, the “chromogenic FVIII-like activity” value with human FIXa (2.3 nM human FIXa) is listed as “did not”.

B4: 198/A1 Fab fragment: Fab fragment of antibody 198/A1 made with papain, purified on protein L (antibody, V domains shown)
VH: EVQLQESGGGLVKPGGSLKLSCAASGFIFSSYTMSWVRQTPEKRLEWVATISSGGSSTYYPDSVKGRFTISRDNAKNTLYLQMSSLKSEDTAMYHCTREGGGYYVNWYFDVWGAGTTLTVSS
VL: DIELTQSPASLAVSLGQRATISCRASESVDSYGKSFMHWYQQKPGQPPKLLIYRASNLESGIPARFSGSGSRTDFTLTINPVEADDVATYYCQQSNEDPLTFGAGTRLEIKR
With B4, in the assay with human FIXa (2.3 nM human FIXa), the “chromogenic FVIII-like activity” value was “still gives rise to FIX dependent FXa generation” and the “chromogenic activity compared to intact antibody” value is recorded as “somewhat less activity”.
